These results are taken from ChEMBL document CHEMBL4610045, “Selective acetylcholinesterase inhibitors derived from muscle relaxant dantrolene” (Bioorg Med Chem Lett, 2020).

Data set [1] has as its target T1, BuChE (butyrylcholinesterase) (Homo sapiens, UniProt P06276). The experiment in a line: Inhibition of BuChE (unknown origin) at 20 nM relative to control.
In data set [2] the target is T2, Acetylcholinesterase (Homo sapiens, UniProt P22303). The data set is described as follows: Inhibition of AChE (unknown origin) at 1 uM using acetylthiocholine iodide as substrate by Ellman's method relative to control. (Ellman's reagent forms a yellow product with free thiols.)
T2 sequence (P22303 whole entry): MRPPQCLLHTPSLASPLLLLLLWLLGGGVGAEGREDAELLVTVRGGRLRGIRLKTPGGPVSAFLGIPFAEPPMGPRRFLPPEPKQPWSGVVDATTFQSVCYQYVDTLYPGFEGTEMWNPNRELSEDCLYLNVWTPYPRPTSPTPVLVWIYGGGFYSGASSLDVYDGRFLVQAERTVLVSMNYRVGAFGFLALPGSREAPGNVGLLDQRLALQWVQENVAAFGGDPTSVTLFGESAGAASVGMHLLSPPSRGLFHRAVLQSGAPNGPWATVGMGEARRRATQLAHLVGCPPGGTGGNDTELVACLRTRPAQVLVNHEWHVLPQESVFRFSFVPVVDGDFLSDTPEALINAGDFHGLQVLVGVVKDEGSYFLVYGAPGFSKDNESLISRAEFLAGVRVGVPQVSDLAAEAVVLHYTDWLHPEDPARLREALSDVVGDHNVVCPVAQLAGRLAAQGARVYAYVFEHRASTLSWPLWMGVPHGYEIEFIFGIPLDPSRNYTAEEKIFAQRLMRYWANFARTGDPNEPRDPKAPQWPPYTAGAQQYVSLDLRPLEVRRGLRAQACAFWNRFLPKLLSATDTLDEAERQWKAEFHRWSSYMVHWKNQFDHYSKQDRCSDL
In data set [3] the target is T2, Acetylcholinesterase. The experiment in a line: Inhibition of AChE (unknown origin) using acetylthiocholine iodide as substrate by Ellman's method.
Data set [4] concerns the target T1, BuChE (butyrylcholinesterase). The experiment in a line: (§1) Inhibition of BuChE (unknown origin) at 1 uM relative to control.
Data set [5] concerns the target T3, Cholinesterase (Homo sapiens, UniProt P06276). The description is as §1. The following applies: 1 µM.
Data set [6] addresses T3, Cholinesterase. The data set is described as follows: Inhibition of BuChE (unknown origin).
The species named for the next data set is Homo sapiens. The experiment in a line: Selectivity index, ratio of IC50 for BuChE (unknown origin) to IC50 for AChE (unknown origin) using acetylthiocholine iodide as substrate.
For data set [7], the target named is T2, Acetylcholinesterase. The data set is described as follows: Non-competitive inhibition of AChE (unknown origin) at 100 to 200 nM using acetylthiocholine as substrate by Ellman's method based Lineweaver-Burk plot analysis.

Broadly, the inhibition is the percentage by which the read-out fell short of the control. One may read the IC50 as the concentration needed to halve the response being measured. A high value points to a need for much substance.

Counter-ions that a name gives are not always drawn. Active and inactive are the calls of the source. The calls are words filed in the database; no cut-off is given here.

T3 sequence (P06276 whole entry): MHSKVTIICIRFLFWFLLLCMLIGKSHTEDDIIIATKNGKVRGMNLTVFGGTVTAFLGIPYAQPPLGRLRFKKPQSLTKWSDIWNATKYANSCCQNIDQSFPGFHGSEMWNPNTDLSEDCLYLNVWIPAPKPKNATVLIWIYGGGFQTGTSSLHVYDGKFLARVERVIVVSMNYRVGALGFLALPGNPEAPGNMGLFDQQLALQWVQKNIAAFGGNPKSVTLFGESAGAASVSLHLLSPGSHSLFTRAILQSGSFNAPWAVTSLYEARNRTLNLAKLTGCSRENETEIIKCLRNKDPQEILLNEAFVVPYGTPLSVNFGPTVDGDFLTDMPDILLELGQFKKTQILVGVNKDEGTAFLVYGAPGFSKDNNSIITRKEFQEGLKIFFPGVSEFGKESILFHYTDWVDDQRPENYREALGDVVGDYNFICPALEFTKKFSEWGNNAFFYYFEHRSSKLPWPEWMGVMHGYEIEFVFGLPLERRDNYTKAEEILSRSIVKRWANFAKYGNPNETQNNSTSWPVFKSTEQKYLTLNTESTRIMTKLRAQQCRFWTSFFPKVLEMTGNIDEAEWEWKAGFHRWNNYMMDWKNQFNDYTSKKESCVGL
T1 sequence (P06276 whole entry): as above

With `Nc1c2c(nc3ccccc13)CCCC2` [TACRINE HYDROCHLORIDE], 0.02 µM produced 64.5% inhibition in data set [1].

On to `O=C1CN(/N=C/c2ccc(-c3ccc([N+](=O)[O-])cc3)o2)C(=O)N1`, for which, on Acetylcholinesterase [2], the inhibition entry is “inactive”.

With `COc1cccc(-c2ccc(/C=N/N3CC(=O)N(CCC4CCN(Cc5ccccc5)CC4)C3=O)o2)c1`, half-maximal inhibition against Acetylcholinesterase [3] (IC50) was put at 0.047 µM. The same compound showed an inhibition at 1 µM in data set [4] of 3.8%.

Regarding `O=C1CN(/N=C/c2ccc(-c3ccc([N+](=O)[O-])cc3)o2)C(=O)N1CCN1CCN(Cc2ccccc2)CC1`, the inhibition at Acetylcholinesterase [2] stood at 67.9%. The same compound had a 50% inhibitory concentration (IC50) at Acetylcholinesterase [3] of 0.201 µM. Besides, the “inhibition (INH)” value on Cholinesterase [5] is “Not Active”.

The compound `O=C1CN(/N=C/c2ccc(-c3cccc([N+](=O)[O-])c3)o2)C(=O)N1CCC1CCN(Cc2ccccc2)CC1` registered an IC50 on Acetylcholinesterase [3] of 0.29 µM. Also, the “inhibition (INH)” value against Cholinesterase [5] is listed as “Not Active”.

As for `O=C1CN(/N=C/c2ccc(-c3ccccc3[N+](=O)[O-])o2)C(=O)N1CCC1CCN(Cc2ccccc2)CC1`, the values for the IC50 on Acetylcholinesterase [3] and on Cholinesterase [6] were 0.0342 µM and 4.47 µM, respectively. In data set [4], this compound registered an inhibition at 1 µM of 14.6%. The Ratio IC50 in the data set filed under Homo sapiens was found to be 130. Besides, the inhibition result on Acetylcholinesterase [7] is “Active”.

Consider `COc1ccc(-c2ccc(/C=N/N3CC(=O)N(CCC4CCN(Cc5ccccc5)CC4)C3=O)o2)cc1`, for which the half-maximal inhibitory concentration (IC50) against Acetylcholinesterase [3] came to 0.108 µM. Further, in data set [4], at 1 µM the inhibition was 4.6%.

For `O=C1CN(/N=C/c2ccc(-c3ccc([N+](=O)[O-])cc3)o2)C(=O)N1CC1CCN(Cc2ccccc2)CC1`, the inhibition entry at Acetylcholinesterase [2] was “inactive”.

With `O=C1CN(/N=C/c2ccc(-c3ccc([N+](=O)[O-])cc3)o2)C(=O)N1CCC1CCN(Cc2ccccc2)CC1`, the inhibition at Acetylcholinesterase [2] worked out at 91.3%. The IC50 on Acetylcholinesterase [3] is 0.0464 µM. The “inhibition (INH)” value against Cholinesterase [5] is “Not Active”.

Compound `COc1ccccc1-c1ccc(/C=N/N2CC(=O)N(CCC3CCN(Cc4ccccc4)CC3)C2=O)o1` returned a 50% inhibitory concentration (IC50) on Acetylcholinesterase [3] of 0.0904 µM. In data set [4], this compound returned an inhibition at 1 µM of 1.6%.
